The values below come from PMC7954794, “Protein context shapes the specificity of SH3 domain-mediated interactions in vivo” (Nature Communications, 2021).

Format in all cases: cell-based, Saccharomyces cerevisiae
Experiment [1] concerns PPIs identified as affected by the SH3 domain deletions. The experiment can be described thus: Liquid DHFR-PCA low-throughput validation of PPIs affected by SH3 deletion (Fig. S1D-E). Conditions: label = prey, liquid DHFR-PCA, prey _1 = lost, _2 = gained in screen. As to the method: Liquid DHFR-PCA low-throughput experiments were performed to validate the PPIs identified as affected by the SH3 domain deletions in the high-throughput solid DHFR-PCA screen (256 PPIs weaker or lost and 116 PPIs stronger or gained following domain deletions). Mating and the diploid selection were performed as described for the large-scale experiment, with the exception that the plates were in 384 formats. Following the second diploid selection, diploid cells were inoculated in a 96 v-shaped well plate using a robotically manipulated 96 pin tool in a synthetic complete medium with MSG at pH 6.0 with NAT and HPH. After 48 h of growth, optical density (OD) was read using a TECAN Infinite F200 Pro, and dilutions to 1 OD in sterile nanopure water were prepared. Cells were then diluted to 0.1 OD by combining 25 µl of cell suspension at OD = 1 and 225 µl of PCA selection media without agar in a 96-wells plate. Plates were incubated at 30 °C in a TECAN Infinite M Nano and OD was monitored each 15 min for 72 h.

The next experiment deals with Abp1 PPIs. Description: DHFR-PCA of Abp1 SH3-swapped baits (Fig. 2B-D, S2C, S2F). Conditions: Fig2B; bait ABP1, label = prey; Replicates 4. The source says:
Having determined that multiple PPIs require SH3s, we asked whether the latter establish PPI specificity independently from their host proteins by swapping domains (Fig. 2A). Using the second round of genome editing, we individually replaced Abp1 SH3 with the 27 yeast SH3s and 3 human Abp1 orthologs’ SH3s (CTTN, HCLS1, and DBNL, Fig. 2B). The reintroduction of its own SH3 (Abp1SH3 in Abp1) reconstitutes almost perfectly Abp1’s interaction profile (Kendall’s τ = 0.93, Fig. 2B). […] No homologous SH3 domain fully re-establishes the normal Abp1 PPI profile (Fig. 2B and Supplementary Fig. 2C). However, we observe a significant correlation (cophenetic correlation = 0.20, p value = 0.005, Fig. 2C) between the similarity of PPI profiles (Fig. 2B) and the sequence similarity of the SH3s. […] Nonetheless, a subset of SH3-dependent PPIs is only observed with the endogenous domain. For instance, Hua2 and App1, both well-characterized partners of Abp1[14],[18],[19], are only detected when Abp1 contains its own SH3 (WT or swapped via editing). A given SH3 may therefore not be fully replaceable with other paralogous or orthologous domains. This pattern is confirmed by cellular growth phenotypic analyses (Supplementary Fig. 2D, E). PPIs, SH3 sequence similarity, and growth profiles under stress conditions are correlated (Supplementary Fig. 2D, E). This relationship is particularly clear when analyzing growth on media supplemented with hygromycin.
The stuffing of YSC84 SH3 rendered the strain sterile and was therefore not used for this study as the assays require crosses. For genes containing two SH3s (BZZ1 and BEM1), a combination of this first stuffer with a second one ([…]) coding for a highly similar linker ([…]) was used, which allowed targeting each SH3 position independently. The two N-terminal domains of SLA1, which are separated by six nucleotides, were stuffed by a single stuffer. Cells containing pCAS were selected via the G418 resistance cassette from the plasmid on YPD plates (YPD + NAT 100 μg/ml (DHFR F[1,2] selection) + G418 200 µg/mL (Bioshop Canada)). Colonies were randomly selected and grown in YPD media without G418 to allow plasmid loss. The correct insertion of the stuffer was validated by PCR and Sanger sequencing. The SH3-swapped, -shuffled, and -mutated strains were constructed following a second CRISPR–Cas9 editing step with the same procedures. The stuffer sequences were targeted by specific gRNAs (one gRNA per stuffer) and replaced by PCR amplified specific SH3 (with 40 bp homology arms) or libraries of mutated SH3 domains for Deep Mutational Scanning (DMS) with 78 bp flanking homology regions. Validation of the SH3 domain insertions was done as we previously described except for DMS libraries (see below).
The overall DHFR-PCA pipeline is based on Tarassov et al.[43] and the procedures have also been published as a visualized protocol. The screens were performed with robotically manipulated pin tools (BM5-SC1, S&P Robotics Inc.). First, the preys were cherry-picked from 96-well plates to omnitrays in a 384 format on YPD + HPH solid media. Plates were then combined into the 1536 format on YPD + HPH. The array was constituted of 575 preys previously shown to interact physically with at least one SH3-containing protein as reported in BioGRID V3.4.16 along with 40 negative controls. The prey array comprised a border of control strains of two rows and two columns corresponding to the PPI between LSM8-DHFR F[1,2] and CDC39-DHFR F[3]. This double border was used to remove border effects. Preys are present in duplicate at a randomized position in the 1536 array (except for YAL041W which is present four times per array). Baits were crossed with two prey plates, resulting in four independent bait–prey tests for each PPI. Baits were grown in liquid YPD + NAT and then transferred on solid YPD + NAT omnitrays. They were then replicated on YPD + NAT omnitrays in 1536 array format. […]

In another experiment the test system is ABP1. Description: DHFR-PCA on solid medium, bait ABP1 (Fig. 1B). As to conditions: bait ABP1, label = prey; for medrep (log2 median colony size normalized to plate background, PCA score): 2-4 replicates; for Ratio (SH3-deleted/WT medrep): only significant differences showed, PPIs completely lost have a ratio of 0.1 and the gained PPIs 2.5. The source says:
Supplement 41467_2021_21873_MOESM8_ESM.xlsx, sheet "Fig1B" | column: medsize; medrep; Ratio; Score

Turning to YAL005C_2, the “Ratio (Deletedscore / WTscore)” value came out at 0.8346 in experiment [1] (bait BOI1), 1.208 in experiment [1] (bait CYK3), 1.323 in experiment [1] (bait HOF1) and 1.478 in experiment [1] (bait).
On to YBL017C, for which, in the experiment on Abp1 PPIs, the “medrep (log2 median colony size normalized to plate background)” value came out at 1.647 and the “medsize (median colony size)” value is recorded as 447.5. In the experiment with ABP1, the “medrep (log2 median colony size normalized to plate background, PCA score)” value came to 2.711 and the “Ratio (SH3-deleted/WT medrep)” value is listed as 1.6455.
In the case of YBL017C_2, the “Ratio (Deletedscore / WTscore)” value in experiment [1] (bait ABP1) was 1.35; in experiment [1] (bait LSB3), 1.844.
Take YBR109C_1: the “Ratio (Deletedscore / WTscore)” value in experiment [1] (bait MYO5) turned out to be 0.9988.
For the substance YBR234C_1, in experiment [1] (bait BUD14), the “Ratio (Deletedscore / WTscore)” value turned out to be 0.744.
Take YDL229W_1: in experiment [1] (bait CDC25), the “Ratio (Deletedscore / WTscore)” value was 0.6311.
Consider YDL229W_2, for which, in experiment [1] (bait BOI1), the “Ratio (Deletedscore / WTscore)” value was 1.5.
Take YDR170C: in the experiment with ABP1, the “medrep (log2 median colony size normalized to plate background, PCA score)” value stood at 2.657 and the “Ratio (SH3-deleted/WT medrep)” value turned out to be 1.547.
Turning to YDR170C_1, in experiment [1] (bait RVS167), the “Ratio (Deletedscore / WTscore)” value is 0.751.
As for YDR170C_2, the “Ratio (Deletedscore / WTscore)” value in experiment [1] (bait ABP1) was determined as 1.267; in experiment [1] (bait LSB3), 1.852.
As for YDR265W_2, the results for the “Ratio (Deletedscore / WTscore)” value in experiment [1] (bait BEM1-1) and in experiment [1] (bait) were 1.494 and 1.155, respectively.
With YER155C_1, the entries for the “Ratio (Deletedscore / WTscore)” value in experiment [1] (bait BOI1), in experiment [1] (bait BOI2) and in experiment [1] (bait BUD14) were 0.8689, 0.775 and 0.7098, respectively.
Regarding YER166W_1, the “Ratio (Deletedscore / WTscore)” value in experiment [1] (bait RVS167) is on record as 0.4913.
With YGL206C_1, the figures for the “Ratio (Deletedscore / WTscore)” value in experiment [1] (bait BBC1), in experiment [1] (bait BOI1) and in experiment [1] (bait HOF1) were 0.7295, 1.003 and 0.9141, respectively.
As to YGL206C_2, the results for the “Ratio (Deletedscore / WTscore)” value in experiment [1] (bait BEM1-2), in experiment [1] (bait BZZ1-1) and in experiment [1] (bait BZZ1-2) were 1.078, 0.8702 and 1.646, respectively.
With YIL062C_1, in experiment [1] (bait BZZ1-1), the “Ratio (Deletedscore / WTscore)” value was 0.7418.
Turning to YIL062C_2, the “Ratio (Deletedscore / WTscore)” value in experiment [1] (bait HSE1) came to 1.213.
Take YKL013C_1: the “Ratio (Deletedscore / WTscore)” value was determined as 0.9908 in experiment [1] (bait BZZ1-1), 1.121 in experiment [1] (bait BZZ1-2) and 0.8543 in experiment [1] (bait MYO5).
As for YLL040C_1, the “Ratio (Deletedscore / WTscore)” value in experiment [1] (bait LSB3) came out at 0.505.
Take YLR370C_1: the “Ratio (Deletedscore / WTscore)” value in experiment [1] (bait BZZ1-1) was determined as 0.6354.
As for YOR181W_1, the “Ratio (Deletedscore / WTscore)” value in experiment [1] (bait BBC1) amounted to 0.634; in experiment [1] (bait LSB1) it was 0.5295; in experiment [1] (bait LSB3), 0.6909; in experiment [1] (bait MYO3), 0.5123; in experiment [1] (bait MYO5), 0.7615; in experiment [1] (bait PIN3), 0.5418.
On to “YPR154W (EYVEALYQFDPQQDGDLGLKPGDKVQLLEKLSPEWYKGSCNGRTGIFPANYVKPAF)”, for which, in the experiment with ABP1, the “medrep (log2 median colony size normalized to plate background, PCA score)” value was found to be 1.556.
For YPR184W_2, the “Ratio (Deletedscore / WTscore)” value in experiment [1] (bait LSB3) amounted to 1.832.
